Measured values taken from ChEMBL document CHEMBL3425446, “Isolation, semi-synthesis and bio-evaluation of spatane derivatives from the brown algae Stoechospermum marginatum” (Bioorg Med Chem Lett, 2015).
Converted amounts (≈) assume the structure as drawn. The source made the active and inactive calls. The calls are words filed in the database; no cut-off is given here.

How the values were obtained:
[1] = tested on: COLO 205; test: Cytotoxicity against human COLO205 cells assessed as decrease in cell number after 24 hrs by MTT assay; format: functional, cell-based; conditions: COLO 205, 24 h
[2] = tested on: Klebsiella pneumoniae; test: Antibacterial activity against Klebsiella pneumoniae assessed as growth inhibition at 0.5 mg/ml after 24 hrs by well diffusion method; format: functional; conditions: read-out: DIZ
[3] = Cytotoxicity against mouse B16F10 cells assessed as decrease in cell number after 24 hrs by MTT assay; format: functional, cell-based; conditions: B16-F10, 24 h
[4] = tested on: Escherichia coli; test: Antibacterial activity against Escherichia coli assessed as growth inhibition at 0.5 mg/ml after 24 hrs by well diffusion method; format: functional; conditions: read-out: DIZ
[5] = Cytotoxicity against human HL60 cells assessed as decrease in cell number after 24 hrs by MTT assay; format: functional, cell-based; conditions: HL-60, 24 h
[6] = tested on: Micrococcus luteus; test: Antibacterial activity against Micrococcus luteus assessed as growth inhibition at 0.5 mg/ml after 24 hrs by well diffusion method; format: functional; conditions: read-out: DIZ
[7] = tested on: Escherichia coli; test: Antibacterial activity against Escherichia coli assessed as compound concentration required to complete growth inhibition at 8 hrs by tube dilution method; format: functional
[8] = tested on: Klebsiella pneumoniae; test: Antibacterial activity against Klebsiella pneumoniae assessed as compound concentration required to complete growth inhibition at 8 hrs by tube dilution method; format: functional
[9] = tested on: Micrococcus luteus; test: Antibacterial activity against Micrococcus luteus assessed as compound concentration required to complete growth inhibition at 8 hrs by tube dilution method; format: functional
[10] = tested on: THP-1; test: Cytotoxicity against human THP1 cells assessed as decrease in cell number after 24 hrs by MTT assay; format: functional, cell-based; conditions: THP-1, 24 h
[11] = tested on: Bacillus subtilis; test: Antibacterial activity against Bacillus subtilis assessed as compound concentration required to complete growth inhibition at 8 hrs by tube dilution method; format: functional
[12] = Cytotoxicity against human U937 cells assessed as decrease in cell number after 24 hrs by MTT assay; format: functional, cell-based; conditions: U-937, 24 h
[13] = tested on: Bacillus subtilis; test: Antibacterial activity against Bacillus subtilis assessed as growth inhibition at 0.5 mg/ml after 24 hrs by well diffusion method; format: functional; conditions: read-out: DIZ
[14] = tested on: HL-60; test: Cytotoxicity against human HL60 cells assessed as growth inhibition at 200 ug/ml after 24 hrs by MTT assay; format: functional, cell-based
[15] = tested on: COLO 205; test: Cytotoxicity against human COLO205 cells assessed as growth inhibition at 200 ug/ml after 24 hrs by MTT assay; format: functional, cell-based

| SMILES | IC50 [1] | zone of inhibition at 500 µg/mL [2] | IC50 [3] | zone of inhibition at 500 µg/mL [4] | IC50 [5] | zone of inhibition at 500 µg/mL [6] | MIC [7] | MIC [8] | MIC [9] | IC50 [10] | MIC [11] | IC50 [12] | zone of inhibition at 500 µg/mL [13] | growth inhibition (GI) [14] | growth inhibition (GI) [15] |
| --- | --- | --- | --- | --- | --- | --- | --- | --- | --- | --- | --- | --- | --- | --- | --- |
| C=C(C(O)/C=C/C(C)=O)[C@@H]1C[C@@H](O)[C@@]2(C)[C@@H]1[C@@H]1[C@H](C)CC[C@@H]12 (stereo partly specified) | 42.1 µg/mL (≈ 138 µM) | 11.7 mm | 17 µg/mL (≈ 55.9 µM) | 17.3 mm | 42.3 µg/mL (≈ 139 µM) | 12.7 mm | 200 µg/mL (≈ 657 µM) | 100 µg/mL (≈ 328 µM) | 200 µg/mL (≈ 657 µM) | 38.9 µg/mL (≈ 128 µM) | 200 µg/mL (≈ 657 µM) | 13 µg/mL (≈ 42.8 µM) | 12 mm | – | – |
| C=C(C(=O)/C=C/C(C)(O)COC(C)=O)[C@@H]1C[C@@H](O)[C@@]2(C)[C@@H]1[C@@H]1[C@H](C)CC[C@@H]12 (stereo partly specified) | 35.1 µg/mL (≈ 93.3 µM) | 14 mm | 3.28 µg/mL (≈ 8.71 µM) | 17 mm | 51.8 µg/mL (≈ 138 µM) | 16.7 mm | 100 µg/mL (≈ 266 µM) | 100 µg/mL (≈ 266 µM) | 50 µg/mL (≈ 133 µM) | 15.2 µg/mL (≈ 40.3 µM) | 100 µg/mL (≈ 266 µM) | 9.58 µg/mL (≈ 25.4 µM) | 15.7 mm | – | – |
| C=C(C(=O)/C=C/C(C)(O)COC(C)=O)[C@@H]1C[C@@H](OC(C)=O)[C@@]2(C)[C@@H]1[C@@H]1[C@H](C)CC[C@@H]12 (stereo partly specified) | 26.8 µg/mL (≈ 64 µM) | 19.7 mm | 4.41 µg/mL (≈ 10.5 µM) | 23.7 mm | 35.6 µg/mL (≈ 85.1 µM) | 21.7 mm | 200 µg/mL (≈ 478 µM) | 200 µg/mL (≈ 478 µM) | 100 µg/mL (≈ 239 µM) | 33.9 µg/mL (≈ 80.9 µM) | 100 µg/mL (≈ 239 µM) | 8.8 µg/mL (≈ 21 µM) | 21.7 mm | – | – |
| C=C(C[C@@H](O)C=C(C)C)[C@@H]1C[C@@H](O)[C@@]2(C)[C@@H]1[C@@H]1[C@H](C)CC[C@@H]12 | 72.2 µg/mL (≈ 237 µM) | 16.7 mm | 46.7 µg/mL (≈ 153 µM) | 12.3 mm | 41.6 µg/mL (≈ 137 µM) | 14 mm | 100 µg/mL (≈ 328 µM) | 50 µg/mL (≈ 164 µM) | 100 µg/mL (≈ 328 µM) | 53 µg/mL (≈ 174 µM) | 100 µg/mL (≈ 328 µM) | 51.3 µg/mL (≈ 168 µM) | 13.7 mm | – | – |
| C=C(CC(C=C(C)C)OC(C)=O)[C@@H]1C[C@@H](O)[C@@]2(C)[C@@H]1[C@@H]1[C@H](C)CC[C@@H]12 (stereo partly specified) | 87.3 µg/mL (≈ 252 µM) | 11.7 mm | 73.2 µg/mL (≈ 211 µM) | 10.7 mm | 198 µg/mL (≈ 572 µM) | 10.3 mm | 200 µg/mL (≈ 577 µM) | 200 µg/mL (≈ 577 µM) | 200 µg/mL (≈ 577 µM) | 50.3 µg/mL (≈ 145 µM) | 400 µg/mL (≈ 1150 µM) | 60 µg/mL (≈ 173 µM) | 0 mm | – | – |
| C=C(C/C=C/C(C)(C)O)[C@@H]1C[C@@H](O)[C@@]2(C)[C@@H]1[C@@H]1[C@H](C)CC[C@@H]12 | – | 16 mm | 174 µg/mL (≈ 572 µM) | 12.7 mm | – | 16.3 mm | 100 µg/mL (≈ 328 µM) | 100 µg/mL (≈ 328 µM) | 100 µg/mL (≈ 328 µM) | 50 µg/mL (≈ 164 µM) | 100 µg/mL (≈ 328 µM) | 42.3 µg/mL (≈ 139 µM) | 13.7 mm | inactive | inactive |
| C=C(C(O)/C=C/C(C)(O)COC(C)=O)[C@@H]1C[C@@H](OC(C)=O)[C@@]2(C)[C@@H]1[C@@H]1[C@H](C)CC[C@@H]12 (mixture of isomers) | 36.1 µg/mL | 10.7 mm | 3.45 µg/mL | 11.3 mm | 41 µg/mL | 14.7 mm | 50 µg/mL | 50 µg/mL | 50 µg/mL | 14.2 µg/mL | 50 µg/mL | 5.6 µg/mL | 14.3 mm | – | – |
| C=C(C(O)/C=C/C(C)(O)COC(C)=O)[C@@H]1CC(=O)[C@@]2(C)[C@@H]1[C@@H]1[C@H](C)CC[C@@H]12 (mixture of isomers) | – | 0 mm | 58.5 µg/mL | 0 mm | 43.9 µg/mL | 0 mm | 100 µg/mL | 200 µg/mL | 200 µg/mL | 52 µg/mL | 100 µg/mL | 43.6 µg/mL | 0 mm | – | inactive |
| C=C(CC(C=C(C)C)OC(C)=O)[C@@H]1C[C@@H](OC(C)=O)[C@@]2(C)[C@@H]1[C@@H]1[C@H](C)CC[C@@H]12 (mixture of isomers) | 67.1 µg/mL | 12.3 mm | 29 µg/mL | 0 mm | 84.9 µg/mL | 12.3 mm | 400 µg/mL | 400 µg/mL | 400 µg/mL | 77.8 µg/mL | 400 µg/mL | 40.1 µg/mL | 11.3 mm | – | – |
| C=C(C/C=C/C(C)(C)O)[C@@H]1C[C@@H](OC(C)=O)[C@@]2(C)[C@@H]1[C@@H]1[C@H](C)CC[C@@H]12 (mixture of isomers) | 64.7 µg/mL | 16 mm | 47.1 µg/mL | 13.3 mm | 39.9 µg/mL | 15.3 mm | 400 µg/mL | 200 µg/mL | 200 µg/mL | 44.6 µg/mL | 200 µg/mL | 48.5 µg/mL | 15.3 mm | – | – |
| C=C(C)C(O)CCC(=C)[C@@H]1C[C@@H](OC(C)=O)[C@@]2(C)[C@@H]1[C@@H]1[C@H](C)CC[C@@H]12 (mixture of isomers) | 145 µg/mL | 19 mm | 104 µg/mL | 15.7 mm | 157 µg/mL | 16.3 mm | 100 µg/mL | 50 µg/mL | 50 µg/mL | 58.1 µg/mL | 100 µg/mL | 35.1 µg/mL | 13.7 mm | – | – |
| COc1cc([C@@H]2c3cc4c(cc3[C@@H](O[C@@H]3O[C@@H]5CO[C@@H](C)O[C@H]5[C@H](O)[C@H]3O)[C@H]3COC(=O)[C@H]23)OCO4)cc(OC)c1O [ETOPOSIDE] | 1.07 µg/mL (≈ 1.82 µM) | – | 4.12 µg/mL (≈ 7 µM) | – | 2.12 µg/mL (≈ 3.6 µM) | – | – | – | – | 5.02 µg/mL (≈ 8.53 µM) | – | 2.27 µg/mL (≈ 3.86 µM) | – | – | – |
| CN[C@@H]1[C@H](O[C@H]2[C@H](O[C@H]3[C@H](O)[C@@H](O)[C@H](N=C(N)N)[C@@H](O)[C@@H]3N=C(N)N)O[C@@H](C)[C@]2(O)C=O)O[C@@H](CO)[C@H](O)[C@H]1O.CN[C@@H]1[C@H](O[C@H]2[C@H](O[C@H]3[C@H](O)[C@@H](O)[C@H](N=C(N)N)[C@@H](O)[C@@H]3N=C(N)N)O[C@@H](C)[C@]2(O)C=O)O[C@@H](CO)[C@H](O)[C@H]1O.O=S(=O)(O)O.O=S(=O)(O)O.O=S(=O)(O)O [STREPTOMYCIN SULFATE] | – | 27.3 mm | – | 30.3 mm | – | 28.7 mm | 6.25 µg/mL | 6.25 µg/mL | 6.25 µg/mL | – | 6.25 µg/mL | – | 28.7 mm | – | – |
